According to patent publication US8829014B2, “Thiazole and thiophene analogues, and their use in treating autoimmune diseases and cancers” (Board of Supervisors of Louisiana State University and …, priority 2006, dated 2014):

system: carageenan-induced edema; experiment: Carrageenan-induced rat paw edema test (anti-inflammatory activity); assay type: in vivo, Sprague-Dawley rats; conditions: Rattus norvegicus, po, 3 h, carrageenan-induced rat paw edema; defined in Example 397; read-out: % Protection
Experimental: Sprague-Dawley rats, male and female, 150-250 g will be used in an edema test. Rats will be deprived of food but not water for 18 hours prior to the experiment. The test compounds will be administered with a blunt-tipped needle orally, 50 mg/kg, as a suspension in 0.1% sodium CMC (carboxymethylcellulose) vehicle. Alternatively, the test compounds will be injected intravenously, subcutaneously, or intraperitoneally. One hour later, 0.1 ml of a 1% carrageenan solution in saline will be injected in the sub-plantar region of the right hind paw of each rat. […] The reading will be repeated 3 hours later. The displacement readings give a measure of carageenan-induced edema. Any reduction in carageenan-induced edema with a test compound, as compared to saline control, is a measure of the anti-inflammatory activity of the test compound. The percentage protection at 50-mg/kg doses was calculated according to the following formula: % Protection=[(Control−Test)/Control]×100%.
Following treatment, the media from the VSMC and HUVEC incubations were removed, and the amount of lactate dehydrogenase (LDH) released into the medium was determined with a commercial kit and expressed as a % increase over vehicle-treated cells. HPT toxicity was determined by the ethidium homodimer (EthHD) uptake assay. […] The lead compounds were also tested in two pairs of cell lines from the skin or prostate, one tumorigenic and one non-tumorigenic, to test for differing toxicity or heightened sensitivity in the tumorigenic lines. The cells were treated for 48 h with vehicle (0.1% DMSO) or 10 μM of each drug candidate, and the viability of the cells was determined by the MTT assay, expressed as a % decrease in viability compared to vehicle-treated cells. The in vivo inflammation model measured the % inhibition of rat paw edema induced by carageenan injection.

Compound | inhibition in vivo at 50 mg/kg [%]
Cc1ccc(Nc2nc(C)c(-c3nc4ccccc4c(=O)n3-c3ccc(Cl)cc3)s2)cc1 [Example 247, 2-[2-(4-Methylphenylamino)-4-methyl-thiazol-5-yl]-3-(4-chloro-phenyl)-3H-quinazolin-4-one] | 71.9
COc1ccccc1-n1c(-c2sc(Nc3ccc(Cl)cc3)nc2-c2ccccc2)nc2ccccc2c1=O [Example 208, 2-[2-(4-Chloro-phenylamino)-4-phenyl-thiazol-5-yl]-3-(2-methoxyphenyl)-3H-quinazolin-4-one] | 31
Cc1ccccc1-n1c(-c2sc(Nc3ccc(Cl)cc3)nc2-c2ccccc2)nc2ccccc2c1=O [Example 178, 2-[2-(4-Chloro-phenylamino)-4-phenyl-thiazol-5-yl]-3-o-tolyl-3H-quinazolin-4-one] | 51

same assay, conditions: Rattus norvegicus, po, 3 h, rat paw edema, 50 mg/kg, reading 3 hours after carrageenan; [(Control−Test)/Control]×100%; read-out: % Protection P

Compound | inhibition in vivo at 50 mg/kg [%]
COc1ccc(Nc2nc(NC(=O)Nc3ccc(F)cc3)c(C(=O)c3ccc(C)cc3)s2)cc1 [Example 362, 1-[2-(4-Methoxy-phenylamino)-5-(4-methyl-benzoyl)-thiazol-4-yl]-3-(4-fluoro-phenyl)-urea] | 61.3
CS(=O)(=O)c1ccc(-c2cc(C(=O)c3cc(-c4ccc(S(C)(=O)=O)cc4)c(N4CCOCC4)s3)sc2N2CCOCC2)cc1 [Example 112, Bis-[4-(4-methansulfonyl-phenyl)-5-morpholin-4-yl-thiophen-2-yl]-methanone] | 55.6
Cc1c(OCC(F)(F)F)ccnc1-c1sc(Nc2ccc(Cl)cc2)nc1N [Example 342, (N2-(4-Chloro-phenyl)-5-[3-Methyl-4-(2,2,2-trifluoro-ethoxy)-pyridin-2-yl]-thiazole-2,4-diamine)] | 76
COc1ccc(C(=O)c2sc(Nc3ccc(Cl)cc3)nc2NC(=O)Nc2ccc(F)cc2)cc1 [Example 355, 1-[2-(4-Chloro-phenylamino)-5-(4-methoxy-benzoyl)-thiazol-4-yl]-3-(4-fluoro-phenyl)-urea] | 62.6
CC(=O)Nc1ccc(-c2cc(C(=O)c3cccnc3)sc2N2CCOCC2)cc1 [Example 74, N-{4-[2-Morpholin-4-yl-5-(pyridine-3-carbonyl)-thiophene-3-yl]-phenyl}-acetamide] | 34
COc1ccc(Nc2nc(NC(=O)Nc3ccc(F)cc3)c(-c3cc(C)c(OC)c(C)n3)s2)cc1 [Example 366, 1-(4-Fluoro-phenyl)-3-[5-(5-methoxy-4,6-dimethyl-pyridin-2-yl)-2-(4-methoxy-phenylamino)-thiazol-4-yl]-urea] | 19.1
COc1ccc(Nc2nc(NC(=O)Nc3ccc(F)cc3)c(C(=O)c3ccc(Cl)cc3)s2)cc1 [Example 363, 1-[5-(4-Chloro-benzoyl)-2-(4-methoxy-phenylamino)-thiazol-4-yl]-3-(4-fluoro-phenyl)-urea] | 54.5
CC(=O)Nc1ccc(-c2cc(C(=O)c3cc(-c4ccc(NC(C)=O)cc4)c(N4CCOCC4)s3)sc2N2CCOCC2)cc1 [Example 113, N-{4-{5-[4-(4-acetylamino-phenyl)-5-morpholin-4-yl-thiophene-2-carbonyl]-2-morpholin-4-yl-thiophene-3-yl}-phenyl)-acetamide] | 45.5
COc1ccc(Nc2nc(N)c(C(=O)c3ccncc3)s2)cc1 [Example 350, ([4-Amino-2-(4-methoxy-phenylamino)-thiazol-5-yl]-pyridin-4-yl-methanone)] | 25.8
CC(=O)Nc1ccc(C(=O)c2sc(Nc3ccccc3)nc2N)cc1 [Example 326, N-[4-(4-Amino-2-phenylamino-thiazole-5-carbonyl)-phenyl]-acetamide] | 34
CN1CCN(c2sc(-c3nc4ccccc4c(=O)n3-c3ccc(Cl)cc3)cc2-c2ccc(S(C)(=O)=O)cc2)CC1 [Example 318, 3-(4-Chlorophenyl)-2-[4-(4-methanesulfonyl-phenyl)-5-(4-methyl-piperazine-1-yl)-thiophen-2-yl]-3H-quinazolin-4-one] | 21
O=C(c1ccc(Cl)cc1)c1cc(-c2cccnc2)c(N2CCOCC2)s1 [Example 93, (4-Chloro-phenyl)-(5-morpholin-4-yl-4-pyridin-3-yl-thiophen-2-yl)-methanone] | 0
Nc1nc(Nc2ccccc2)sc1C(=O)c1ccc(Cl)cc1 [Example 323, (4-Amino-2-phenylamino-thiazol-5-yl)-(4-chloro-phenyl)-methanone] | 43
O=C(c1cc(-c2ccncc2)c(N2CCOCC2)s1)c1ccc(Cl)cc1Cl [Example 106, (2,4-Dichloro-phenyl)-(5-morpholin-4-yl-4-pyridin-4-yl-thiophen-2-yl)-methanone] | -75.2
Cc1ccc(-n2c(-c3cc(-c4ccc(S(C)(=O)=O)cc4)c(N4CCOCC4)s3)nc3ccccc3c2=O)cc1 [Example 292, 2-[4-(4-Methanesulfonyl-phenyl)-5-morpholin-4-yl-thiophen-2-yl]-3-p-tolyl-3H-quinazolin-4-one] | 31
O=C(c1ccccc1)c1cc(-c2ccncc2)c(N2CCOCC2)s1 [Example 102, (5-Morpholin-4-yl-4-pyridin-4-yl-thiophene-2-yl)-phenyl-methanone] | 52
O=C(Nc1ccc(F)cc1)Nc1nc(Nc2ccc(Cl)cc2)sc1C(=O)c1ccc(Cl)cc1 [Example 357, 1-[5-(4-Chloro-benzoyl)-2-(4-chloro-phenylamino)-thiazol-4-yl]-3-(4-fluoro-phenyl)-urea] | 24.3
CC(=O)Nc1ccc(C(=O)c2cc(-c3ccc(S(C)(=O)=O)cc3)c(N3CCOCC3)s2)cc1 [Example 61, N-{4-[4-(4-Methansulfonyl-phenyl)-5-morpholin-4-yl-thiophene-2carbonyl]-phenyl}-acetamide] | 25
Nc1nc(Nc2ccc(Cl)cc2)sc1C(=O)c1ccncc1 [Example 339, [4-Amino-2-(4-chloro-phenylamino)-thiazol-5-yl]-pyridin-4-yl-methanone] | 12
CS(=O)(=O)c1ccc(-c2cc(C(=O)c3cccnc3)sc2N2CCOCC2)cc1 [Example 62, [4-(4-Methanesulfonyl-phenyl)-5-morpholin-4-yl-thiophene-2-yl]-pyridin-3-yl-methanone] | 0
COc1ccc(Nc2nc(N)c(-c3ncc(C)c(OC)c3C)s2)cc1 [Example 352, (5-(4-Methoxy-3,5-dimethyl-pyridin-2-yl)-N2-(4-methoxy-phenyl)-thiazole-2,4-diamine)] | 23
COc1ccc(Nc2nc(N)c(C(=O)c3ccc(Cl)cc3)s2)cc1 [Example 345, ([4-Amino-2-(4-methoxy-phenylamino)-thiazol-5-yl]-(4-chloro-phenyl)-methanone)] | 34.6
CC(=O)Nc1ccc(C(=O)c2cc(-c3ccncc3)c(N3CCOCC3)s2)cc1 [Example 109, N-[4-(5-Morpholin-4-yl-4-pyridin-4-yl-thiophen-2-carbonyl)-phenyl]-acetamide] | -75.2
Nc1nc(Nc2ccc(Cl)cc2)sc1C(=O)c1ccc(Cl)cc1Cl [Example 335, [4-Amino-2-(4-chloro-phenylamino)-thiazol-5-yl]-(2,4-dichloro-phenyl)-methanone] | 30.3
CS(=O)(=O)c1ccc(-c2cc(C(=O)c3ccc(Cl)cc3)sc2N2CCOCC2)cc1 [Example 57, (4-Chloro-phenyl)-[4-(4-methanesulfonyl-phenyl)-5-morpholin-4-yl-thiophen-2-yl]-methanone] | 26.9
COC(=O)Nc1nc(C)c(C(=O)c2sc(NC(=O)OC)nc2C)s1 [Example 123, Dimethyl[carbonyl-bis(4-methyl-1,3-thiazole-5,2-diyl)]biscarbamate] | 23.9

same assay, conditions: rat paw edema, 50 mg/kg, reading 3 hours after carrageenan; [(Control−Test)/Control]×100%

Compound | % Protection P [%]
COc1c(C)cnc(-c2sc(Nc3ccc(Cl)cc3)nc2N)c1C [Example 341] | 32
4-{5-[5-Methyl-5-(2,2,2-trifluoro-ethoxy)-pyridin-2-yl]-3-pyridin-3-yl-thiphen-2-yl}-morpholine [Example 89] | −18.05
N-[4-(5-Morpholin-4-yl-4-thiophene-2-carbonyl)-phenyl]-acetamide [Example 49] | 68.31

same assay, conditions: rat paw edema, 50 mg/kg, reading 3 hours after carrageenan; [(Control−Test)/Control]×100%; 50 mg/kg

Compound | % Protection P [%]
COc1ccc(C(=O)c2sc(Nc3ccccc3)nc2NC(=O)Nc2ccc(F)cc2)cc1 [Example 354, 1-(4-Fluoro-phenyl)-3-[5-(4-methoxy-benzoyl)-2-phenylamino-thiazol-4-yl]-urea] | 26.27
COc1ccc(C(=O)c2sc(Nc3ccccc3)nc2N)cc1 [Example 321, 4-Amino-(2-phenylamino-thiazol-5-yl)-(4-methoxy-phenyl)-methanone] | 12.25
